# In patent US20190150447A1, “CONDENSED HETEROCYCLIC COMPOUND” (Sumitomo Chemical Company, Limited, priority 2015, published 2019):
# Legend:
# Type in all cases: in vivo
# [1] = tested on: housefly (Musca domestica); experiment: Test Example 4: filter paper/sucrose bait test against housefly; details: 0.7 mL on filter paper, female adult, after 24 hours, read-out: mortality of insects
# Protocol: (§1) The test compound is made to a formulation according to the method described in the Formulation Example 5, and thereto is added water to prepare a diluted solution containing a prescribed concentration of the test compound.
# The bottom of the plastic cup having 5.5 cm diameter is matted with the same size of a filter paper, and 0.7 mL of the diluted solution is added dropwise to the filter paper, and 30 mg sucrose as bait is placed in the cup uniformly. Ten (10) heads of female adult housefly (Musca domestica) are released into the plastic cup, and the cup is covered with the lid. After 24 hours, the life and death of housefly is examined and the mortality of insects is determined. The mortality of insects is calculated by the following equation.
# (§2) Mortality of insects (%)=(Number of dead insects/Number of test insects)×100
# [2] = tested on: German cockroach (Blattella germanica); experiment: Test Example 5: filter paper/sucrose bait test against German cockroach; details: 144 h, 0.7 mL on filter paper, male, after 6 days, read-out: mortality of insects
# Protocol: as §1
# The bottom of the plastic cup having 5.5 cm diameter is matted with the same size of a filter paper, and 0.7 mL of the diluted solution is added dropwise to the filter paper, and 30 mg sucrose as bait is placed in the cup uniformly. Two (2) heads of male German cockroach (Blattella germanica) are released into the plastic cup, and the cup is covered with the lid. After 6 days, the life and death of German cockroach is examined and the number of died insects is counted, and the mortality of insects is calculated by the following equation.
# as §2
# [3] = tested on: common house mosquito (Culex pipiens pallens); experiment: Test Example 6: larvae released into diluted solution, common house mosquito; details: 24 h, last instar larvae in diluted solution, after 1 day, read-out: mortality of insects
# Protocol: as §1
# Thirty (30) heads of last instar larvae of common house mosquito (Culex pipiens pallens) are released into the diluted solutions and after 1 day, the life and dead of common house mosquito is examined, and the mortality of insects is calculated by the following equation.
# Mortality of insects (%)=((Number of dead insects/Numboer of test insects)×100
# [4] = tested on: cabbage moth (Plutella xylostella); experiment: Test Example 3: foliar spray on cabbage seedling against cabbage moth; details: 120 h, spray 20 mL/seedling on cabbage, second instar larvae, after 5 days, read-out: mortality of insects
# Protocol: (§3) The test compound is made to a formulation according to the method described in the Formulation Example 5, and thereto is added water containing 0.03 v/v % of a spreader to prepare a diluted solution containing a prescribed concentration of the test compound.
# The diluted solutions are sprayed into the cabbage (Brassicae oleracea) seedling (on the developmental stage of the second to third true leaf) that is planted in a container in a ratio of 20 mL/seedling. Thereafter, the stem and leaf thereof is cut out and then is installed into the container that is covered with the filter paper. Five (5) heads of cabbage moth (Plutella xylostella) at the second instar larval stages are released into the cup. After 5 days, the surviving insects are counted, and the mortality of insects is calculated by the following equation.
# Morality (%)={1−the number of the surviving insects/5}×100
# [5] = tested on: cotton aphid (Aphis gossypii); experiment: Test Example 1: foliar spray on cucumber seedling against cotton aphid; details: 500 ppm; spray 10 mL/seedling on cucumber; all stages of life; after 5 days
# Protocol: The test compounds is made to a formulation according to the method described in the Formulation Example 5, and thereto is added water containing 0.03 v/v % of a spreader to prepare a diluted solution containing a prescribed concentration of the test compound. Cucumber (Cucumis sativus) seedling (on the developmental stage of the second true leaf) is planted in a plastic cup, and approximately 30 heads of cotton aphid (Aphis gossypii) (all stages of life) are released onto the leaves of the cucumber. After 1 day, the diluted solutions were sprayed into the seedling in a ratio of 10 mL/seedling. After 5 days, the number of the surviving insects is examined and the controlling value is calculated by the following equation. Controlling value (%)={1−(Cb×Tai)/(Cai×Tb)}×100 wherein the symbols in the equation represent the following descriptions. Cb: Number of the test insects in untreated group; Cai: Number of the surviving insects at the time of the investigation in untreated group; Tb: Number of the test insects in treated group; Tai: Number of the surviving insects at the time of the investigation in treated group; Here the “untreated group” represents a group where the similar treatment procedure to that of the treated group except not using the test compound is done.
# [6] = tested on: brown planthopper (Nilaparvata lugens); experiment: Test Example 2: foliar spray on rice seedling against brown planthopper; details: 144 h, spray 10 mL/seedling on rice, 3rd instar larvae, after 6 days, read-out: mortality of insects
# Protocol: as §3
# Rice (Oryza sativa) seedling (on the developmental stage of the second true leaf) is planted in a plastic cup, and the diluted solutions are sprayed into the seedling in a ratio of 10 mL/seedling. Thereafter, 20 heads of 3rd instar larvae of brown planthopper (Nilaparvata lugens) are released onto the rice leaves. After 6 days, the morality is calculated by the following equation.
# Morality (%)={1−the number of the surviving insects/20}×100
smiles,measurement,setting,value
CCS(=O)(=O)c1ccc(-n2cncn2)nc1-c1nc2cc(C(F)(F)F)ncc2n1C [Present compound 1],mortality at 500 ppm,[1],100%
same,mortality at 500 ppm,[2],100%
same,mortality at 3.5 ppm,[3],91%
same,mortality at 500 ppm,[4],100%
same,controlling value,[5],100%
same,mortality at 500 ppm,[6],100%
